# Assay results published in ChEMBL document CHEMBL4699511, “Cedrol, a Sesquiterpene Alcohol, Enhances the Anticancer Efficacy of Temozolomide in Attenuating Drug Resistance via Regulation of the DNA Damage Response and MGMT Expression” (J Nat Prod, 2020).
# Active and inactive are the calls of the source. No cut-off for these calls is given here.
# Columns and labels:
# DBTRG-05MG [1] = assay: Induction of cell cycle arrest in human DBTRG-05MG cells assessed as accumulation at G2/M phase at 112.4 uM after 6 hrs by propidium iodide staining based flow cytometric analysis (reference value: 30.08 +/- 0.1%); type: functional
# RG2 [2] = assay: Induction of cell cycle arrest in rat RG2 cells assessed as accumulation at S phase at 112.4 uM after 12 hrs by propidium iodide staining based flow cytometric analysis (reference value: 20.15 +/- 2.44%); type: functional
# DBTRG-05MG [3] = assay: Induction of cell cycle arrest in human DBTRG-05MG cells assessed as p53 expression at 112.4 uM after 48 hrs in presence of TMZ by Western blot analysis (reference value: 1); type: functional
# RG2 [4] = assay: Synergistic cytotoxicity against rat RG2 cells assessed as combination index at 112.4 uM after 48 hrs in presence of 309 uM TMZ by MTT assay; type: functional
# RG2 [5] = assay: Induction of cell cycle arrest in rat RG2 cells assessed as CDK2 expression at 112.4uM after 48 hrs by Western blot analysis (reference value: 1); type: functional
# RG2 [6] = assay: Induction of cell cycle arrest in rat RG2 cells assessed as CDK4 expression at 112.4 uM after 48 hrs in presence of TMZ by Western blot analysis (reference value: 1); type: functional
# RG2 [7] = assay: Induction of apoptosis in rat RG2 cells assessed as cleaved PARP expression at 112.4 uM after 48 hrs by Western blot analysis (reference value: 1); type: functional
# RG2 [8] = assay: Induction of cell cycle arrest in rat RG2 cells assessed as accumulation at G0/G1 phase at 112.4 uM after 48 hrs in presence of TMZ by propidium iodide staining based flow cytometric analysis (reference value: 57.81 +/- 1.9%); type: functional
# DBTRG-05MG [9] = assay: Induction of cell cycle arrest in human DBTRG-05MG cells assessed as accumulation at G2/M phase at 112.4 uM after 12 hrs by propidium iodide staining based flow cytometric analysis (reference value: 30.08 +/- 0.1%); type: functional
# DBTRG-05MG [10] = assay: Induction of cell cycle arrest in human DBTRG-05MG cells assessed as accumulation at S phase at 112.4 uM after 6 hrs by propidium iodide staining based flow cytometric analysis (reference value: 22.76 +/- 1.56%); type: functional
# DBTRG-05MG [11] = assay: Synergistic cytotoxicity against human DBTRG-05MG cells assessed as combination index at 89.9 uM after 48 hrs in presence of 103 uM TMZ by MTT assay; type: functional
# RG2 [12] = assay: Induction of apoptosis in rat RG2 cells assessed as Bax expression at 112.4 uM after 48 hrs in presence of TMZ by Western blot analysis (reference value: 1); type: functional
# DBTRG-05MG [13] = assay: Induction of DNA damage in human DBTRG-05MG cells assessed as ATM phosphorylation at ser1981 residues at 112.4 uM after 48 hrs by Western blot analysis (reference value: 1); type: functional
# RG2 [14] = assay: Induction of cell cycle arrest in rat RG2 cells assessed as accumulation at G2/M phase at 112.4 uM after 12 hrs in presence of TMZ by propidium iodide staining based flow cytometric analysis (reference value: 20.04 +/- 0.55%); type: functional
# DBTRG-05MG [15] = assay: Potentiation of TMZ-induced antitumor activity against human DBTRG-05MG cells xenografted in BALB/c nude mouse assessed as reduction in tumour growth at 75 mg/kg, sc co-treated with TMZ for 18 days; type: functional, organism-based; details: time 18.0 day
# [16] = Inhibition of TMZ-induced drug resistance in rat RG2 cells assessed as MGMT expression at 112.4 uM after 48 hrs by Western blot analysis (reference value: 2); type: functional
# RG2 [17] = assay: Induction of apoptosis in rat RG2 cells assessed as increase in chromatin condensation at 112.4 uM after 48 hrs in presence of TMZ by TUNEL assay; type: functional, cell-based
# RG2 [18] = assay: Inhibition of p38 phosphorylation at Tyr182 residues in rat RG2 cells at 112.4uM after 48 hrs by Western blot analysis (reference value: 1); type: cell-based
# [19] = Synergistic cytotoxicity against rat CTX TNA2 cells assessed as synergistic effect index at 134.9 uM after 48 hrs in presence of 309 uM TMZ by MTT assay; type: cell-based; details: ctx tna2, 48 h
# DBTRG-05MG [20] = assay: Induction of cell cycle arrest in human DBTRG-05MG cells assessed as accumulation at G2/M phase at 112.4 uM after 48 hrs in presence of TMZ by propidium iodide staining based flow cytometric analysis (reference value: 30.08 +/- 0.1%); type: functional
# DBTRG-05MG [21] = assay: Synergistic cytotoxicity against human DBTRG-05MG cells assessed as combination index at 134.9 uM after 48 hrs in presence of 103 uM TMZ by MTT assay; type: functional
# DBTRG-05MG [22] = assay: Antitumour activity against human DBTRG-05MG cells xenografted in BALB/c nude mouse assessed as reduction in tumour growth at 75 mg/kg, sc for every 2 days for 20 days and measured every 2 days; type: functional, organism-based; details: time 20.0 day
# DBTRG-05MG [23] = assay: Induction of cell cycle arrest in human DBTRG-05MG cells assessed as accumulation at G0/G1 phase at 112.4 uM after 12 hrs by propidium iodide staining based flow cytometric analysis (reference value: 47.16 +/- 1.55%); type: functional
# DBTRG-05MG [24] = assay: Induction of apoptosis in human DBTRG-05MG cells assessed as cleaved caspace-3 expression at 112.4 uM after 48 hrs by Western blot analysis (reference value: 1); type: functional
# DBTRG-05MG [25] = assay: Induction of apoptosis in human DBTRG-05MG cells assessed as cleaved PARP expression at 206 uM after 48 hrs by Western blot analysis (reference value: 1); type: functional
# RG2 [26] = assay: Inhibition of AKT phosphorylation at S473 residues in rat RG2 cells at 206 uM after 48 hrs by Western blot analysis; type: cell-based
# RG2 [27] = assay: Induction of cell cycle arrest in rat RG2 cells assessed as accumulation at G0/G1 phase at 206 uM after 24 hrs by propidium iodide staining based flow cytometric analysis (reference value: 57.81 +/- 1.9%); type: functional
# DBTRG-05MG [28] = assay: Induction of DNA damage in human DBTRG-05MG cells assessed as Chk2 phosphorylation at Thr68 residues at 206 uM after 48 hrs by Western blot analysis (reference value: 1); type: functional
# RG2 [29] = assay: Induction of cell cycle arrest in rat RG2 cells assessed as accumulation at S phase at 206 uM after 6 hrs by propidium iodide staining based flow cytometric analysis (reference value: 20.15 +/- 2.44%); type: functional
# RG2 [30] = assay: Induction of apoptosis in rat RG2 cells assessed as increase in DNA fragmentation at 206 uM after 48 hrs by TUNEL assay; type: functional, cell-based
# RG2 [31] = assay: Induction of cell cycle arrest in rat RG2 cells assessed as CDK2 expression at 206 uM after 48 hrs by Western blot analysis (reference value: 1); type: functional
# DBTRG-05MG [32] = assay: Induction of cell cycle arrest in human DBTRG-05MG cells assessed as CyclinD1 expression at 206 uM after 48 hrs by Western blot analysis (reference value: 1); type: functional
# RG2 [33] = assay: Induction of apoptosis in rat RG2 cells assessed as phosphorylated caspace-3 expression at 206 uM after 48 hrs by Western blot analysis (reference value: 1); type: functional
smiles,measurement,setting,value
C[C@@H]1CC[C@H]2C(C)(C)[C@H]3C[C@@]12CC[C@@]3(C)O [CEDROL],Activity,DBTRG-05MG [1],30.35%
same,Activity,RG2 [2],16.92%
same,fold change (FC),DBTRG-05MG [3],2.2
same,CI,RG2 [4],0.9
same,fold change (FC),RG2 [5],0.7
same,fold change (FC),RG2 [6],0.5
same,fold change (FC),RG2 [7],1.4
same,Activity,RG2 [8],44%
same,Activity,DBTRG-05MG [9],31.03%
same,Activity,DBTRG-05MG [10],16.38%
same,CI,DBTRG-05MG [11],0.74
same,fold change (FC),RG2 [12],2.21
same,fold change (FC),DBTRG-05MG [13],1.8
same,Activity,RG2 [14],18.79%
same,Activity,DBTRG-05MG [15],Active
same,fold change (FC),[16],0.5
same,Activity,RG2 [17],Active
same,fold change (FC),RG2 [18],1.3
same,Activity_index,[19],0.52
same,Activity,DBTRG-05MG [20],38.26%
same,CI,DBTRG-05MG [21],0.64
same,Activity,DBTRG-05MG [22],Active
same,Activity,DBTRG-05MG [23],54.65%
same,fold change (FC),DBTRG-05MG [24],2.2
Cn1nnc2c(C(N)=O)ncn2c1=O [TEMOZOLOMIDE],fold change (FC),DBTRG-05MG [25],1.4
same,fold change (FC),RG2 [26],0.5
same,Activity,RG2 [27],52.7%
same,fold change (FC),DBTRG-05MG [28],2
same,Activity,RG2 [29],24.46%
same,Activity,RG2 [30],Active
same,fold change (FC),RG2 [31],0.9
same,fold change (FC),DBTRG-05MG [32],0.5
same,fold change (FC),RG2 [33],1.1
